Values quoted from earlier work, collected in patent US7714131B2, “Process for the stereoselective preparation of (−)-halofenate and derivatives thereof” (Metabolex, Inc., priority 2005, dated 2010).

Target: cytochrome P450 2C9 (Homo sapiens, UniProt P11712)
Conditions: compared to the (+)-enantiomer of halofenic acid

cytochrome P450 2C9, sequence (P11712 whole entry): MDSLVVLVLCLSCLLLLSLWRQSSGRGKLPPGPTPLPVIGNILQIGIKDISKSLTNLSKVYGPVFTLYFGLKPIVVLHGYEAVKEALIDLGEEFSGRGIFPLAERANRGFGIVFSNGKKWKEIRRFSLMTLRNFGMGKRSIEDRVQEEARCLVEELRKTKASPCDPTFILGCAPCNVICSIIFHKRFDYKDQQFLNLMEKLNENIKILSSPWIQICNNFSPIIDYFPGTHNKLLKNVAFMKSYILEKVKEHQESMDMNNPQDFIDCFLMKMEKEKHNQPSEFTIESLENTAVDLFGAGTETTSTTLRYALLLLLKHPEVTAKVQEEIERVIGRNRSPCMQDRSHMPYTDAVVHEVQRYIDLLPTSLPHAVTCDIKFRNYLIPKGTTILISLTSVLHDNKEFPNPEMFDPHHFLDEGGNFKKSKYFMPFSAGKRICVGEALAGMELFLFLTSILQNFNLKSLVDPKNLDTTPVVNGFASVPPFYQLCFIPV

ability to inhibit cytochrome P450 2C9, relative activity: about twenty-fold less active
SMILES: O=C(O)C(Oc1cccc(C(F)(F)F)c1)c1ccc(Cl)cc1 (single isomer, unassigned; (-)) [(−)-enantiomer of halofenic acid, (4-chlorophenyl)(3-trifluoromethylphenoxy)acetic acid]
